The values below come from patent US9556417B2, “Reprogramming of cells to a new fate” (The Scripps Research Institute, priority 2010, dated 2017).

Format in all cases: cell-based, mouse
The test system of assay [1] is R1 ES cells. Briefly: Serum-free monolayer cardiac differentiation of ES cells, beating colonies. As to conditions: for cardiac differentiation / percentage of beating colonies: early treatment window; for number of beating colonies: treatment days 5 through 7. As for the experimental part:
Having identified the first serum-free monolayer condition for cardiac differentiation of ES cells, we sought to test its efficacy as a platform to discover regulators of cardiomyogenesis. A collection of approximately 200 small molecules and growth factors reported to be influential in developmental processes were assembled. R1 ES cells were grown and plated for differentiation on Matrigel in 24-well plates using the media and growth factors described above. The screening collection was then added and removed from each well at specific time points in order to account for different developmental time windows. The collection was screened at days 0-2, 2-5, and 5-7.
(§1) Cells are plated at a density of 200,000 cells/well of a 6-well plate in 2.5 ml of ESGM. 6-well plates are coated overnight at 4° C. with 1 ml of Matrigel (BD Bioscience) diluted 50× from stock concentration. 24 hours after plating, or after sufficient colony size was achieved, cells are switched into chemically defined medium (CDM) and treated with 4 uM BIO (Calbiochem) and 20 ng/ml BMP-4 (R&D). CDM contains RPMI 1640, 0.5×N2, 1×B27 (without Vitamin A), 0.5× Glutamax, 0.55 mM beta-mercaptoethanol, 1× non-essential amino acids, 1× nucleosides. At Day 2, medium is changed, and again CDM containing 4 uM BIO with 20 ng/ml BMP-4 is added to the cells. At Day 5, cells are washed once with PBS and medium is changed to CDM containing 100 ng/ml Dkk-1 (R&D). At Day 7, medium is changed, and again CDM containing 100 ng/ml Dkk-1 is added to the cells. At Day 10, cells are trypsinized (0.05% trypsin) (Approximately 5 minutes at 37° C., or until cells begin to detach) and replated onto gelatin coated 6-well plates in CDM with no additional growth factors. By this time, the cells will have formed tight colonies that will be difficult to disrupt (Supplementary FIG. 2b). […] The trypsin is used primarily to detach the cells rather than to dissociate them to a single cell suspension. It is preferable for the colonies to remain intact. The trypsin is briefly quenched with MEF media, cells are centrifuged, and resuspended in CDM for plating. Medium is refreshed as needed to remove dead cells and debris (every 1 to 2 days).

For assay [2], the system named is R1 ES cells. Briefly: QRT-PCR of markers in differentiating ES cells. As to conditions: for expression of cardiac specific markers: treatment days 5-7, assessed at day 8; for expression of Brachyury T, Flk-1, GATA-4 and MESP1: treated day 0-2, harvested day 4.5. As for the experimental part:
To further analyze the mechanism of action of the cardiogenic effect seen with these molecules, QRT-PCR was carried out on cells treated from day 0-2 and harvested at day 4.5.
QRT-PCR was carried out to observe the induction of cardiomyogenesis at the transcript level. At day 5, when A83-01 treatment begins, the predominant state is that of a developed primitive streak type population that is yet to display robust expression of markers of cardiac precursors such as Nkx2.5, Isl-1, and c-kit.
Total RNA from each sample was prepared from 5×10^4 cells using RNeasy mini kit (Qiagen). Reverse transcription was carried out by using Reverse Transcription System (Promega) and PCR performed using PCR Super Mix (Invitrogen).

Another assay concerns R1 mESCs. The assay is described as follows: Serum-free monolayer cardiac differentiation of ES cells, αMHC immunostaining at day 10. As to conditions: for effect on cardiac specification (αMHC staining at day 10): factor given in single treatment windows.
Description: While cellular differentiation is a fluid process, its study can be simplified by defining stages of differentiation. In order to identify conditions conducive to cardiomyocyte differentiation, we employed a matrix strategy in which cells were differentiated for 10 days encompassing 4 treatment windows (followed by a period of maturation in the final procedure). The stages identified for the current study were mesendoderm, mesoderm, cardiac precursor, early cardiomyocyte, and mature cardiomyocyte. Shown in FIG. 24 is a schematic representing the transition from ES cells to cardiomyocytes, including markers for each cell type defined and the treatments used to stimulate each transition.
We began by identifying a minimal serum-free condition in which approximately 1% of cells would express αMHC (alpha-myosin heavy chain) after 10 days of culture. Combinations of medium components and plate coatings were tested in parallel, with the most permissive and consistent condition being a modified chemically defined N2/B27 medium on Matrigel coated plates (see Methods). Prior to differentiation, ES cells were maintained in a pluripotent state on MEFs and with LIF. At day −1, the cells were trypsinized and replated on Matrigel coated plates in LIF supplemented medium, allowing for better cell survival and more robust initial colony formation. In one day, a sufficient colony size is achieved allowing survival in serum-free medium (FIG. 25).
From a literature search, we identified growth factors, cytokines and small molecules reported to influence cardiac differentiation, such as activators and inhibitors of BMP, TGF-β/Nodal, Hedgehog, Wnt, and Notch pathways and tested each for their ability to induce cardiomyogenesis at each time window. For example, to test Dkk-1 in the second window, cells were in basal medium for days 0-2, treated with Dkk-1 for days 2-5, then cultured in basal medium until day 10 before immunofluorescence scoring. Positive regulators of cardiac specification at each stage were therefore identified by their ability to induce alpha-myosin heavy chain (αMHC) expression at day 10, as assessed by immunostaining.
as §1
Cells were fixed in 4% paraformaldehyde (Sigma) for 15 minutes, and stained in 0.3% Triton (Sigma) containing 5% donkey serum (Jackson ImunoResearch). Antibodies were used at dilutions of MF20 [Developmental Studies Hybridoma Bank (DSHB)] […]

Consider `C[C@H]1O[C@@H](n2cnc3c(N)ncnc32)C[C@@H]1OP(=O)(OCCSC(=O)C(C)(C)C)OCCSC(=O)C(C)(C)C` [2′,5′-dd-3′-AMP-bis(t-Bu-SATE)], for which the “cardiac differentiation / percentage of beating colonies” value (shortened to “cardiac differentiation / percentage”) in the assay with R1 ES cells [1] is listed as “decrease in the percentage of beating clusters”.

For the molecule `Cc1cccc(-c2nn(C(=S)Nc3ccccc3)cc2-c2ccnc3ccccc23)n1` [A83-01, 3-(6-Methyl-2-pyridinyl)-N-phenyl-4-(4-quinolinyl)-1H-pyrazole-1-carbothioamide], the “number of beating colonies” value in the assay on R1 ES cells [1] is “induced a higher number of beating colonies”. In addition, the “expression of cardiac specific markers” value in the assay with R1 ES cells [2] is reported as “induced higher levels of expression”.

On to `O=C1Nc2cc(Br)ccc2/C1=C1/Nc2ccccc2/C1=N\O` [BIO, 6-bromoindirubin-3′-oxime], for which the “effect on cardiac specification (αMHC staining at day 10)” value with R1 mESCs was “increase the percentage of αMHC staining”. For the same molecule, the optimal dosage in the assay with R1 mESCs (first window (day 0-2)) amounted to 4 µM. Also, the “cells staining for αMHC” value in the assay with R1 mESCs (treatment in the first window, day 10) is “approximately 20%”.

Regarding `COC(=O)C1=C(C)NC(C)=C([N+](=O)[O-])C1c1ccccc1C(F)(F)F` (stereo not shown) [BayK 8644], the “cardiac differentiation / percentage” value in the assay with R1 ES cells [1] is on record as “strong positive stimulator of cardiac differentiation”. Besides, the “expression of Brachyury T, Flk-1, GATA-4 and MESP1” value in the assay with R1 ES cells [2] is listed as “increased”.

Turning to `CCCC(=O)Nc1ncnc2c1ncn2[C@@H]1O[C@@H]2COP(=O)(O)O[C@H]2[C@H]1OC(=O)CCC` [dibutyryl cAMP], in the assay with R1 ES cells [1], the “cardiac differentiation / percentage” value is recorded as “increased the percentage of beating colonies”. The “expression of Brachyury T, Flk-1, GATA-4 and MESP1” value with R1 ES cells [2] was “increased”.

B1: Dkk-1: Wnt inhibitor Dkk-1 (Dickkopf protein 1) (protein, UniProt O94907 32-266, looked up)
Dickkopf-related protein 1: TLNSVLNSNAIKNLPPPLGGAAGHPGSAVSAAPGILYPGGNKYQTIDNYQPYPCAEDEECGTDEYCASPTRGGDAGVQICLACRKRRKRCMRHAMCCPGNYCKNGICVSSDQNHFRGEIEETITESFGNDHSTLDGYSRRTTLSSKMYHTKGQEGSVCLRSSDCASGLCCARHFWSKICKPVLKEGQVCTKHRRKGSHGLEIFQRCYCGEGLSCRIQKDHHQASNSSRLHTCQRH
With B1, in the assay on R1 ES cells [1] (BMP-4 + BIO then Dkk-1, replated on gelatin, basal medium, after 6 days of culture), the “colonies developing a beating phenotype” value was around 50%. In addition, in the assay with R1 mESCs (after BMP-4 and BIO for 5 days, treated in third or fourth window), the “increase in efficiency of cardiac differentiation” value is 20%.

B2: Activin A: a TGFβ/Activin/Nodal family member growth factor (protein, UniProt P08476 311-426, looked up)
Inhibin beta A chain: GLECDGKVNICCKKQFFVSFKDIGWNDWIIAPSGYHANYCEGECPSHIAGTSGSSLSFHSTVINHYRMRGHSPFANLKSCCVPTKLRPMSMLYYDDGQNIIKKDIQNMIVEECGCS
modifications: Inhibin beta A chain
With B2, the “number of beating colonies” value with R1 ES cells [1] was “lower number of beating colonies”. Also, in the assay with R1 mESCs, the “effect on cardiac specification (αMHC staining at day 10)” value was “negative effects”. Further, in the assay with R1 ES cells [2], the “expression of cardiac specific markers” value is reported as “opposite effect”.

B3: Wnt5a: Wnt-5A class, non-canonical Wnt signaling growth factor (protein, UniProt P41221 62-380, looked up)
Protein Wnt-5a: IIGAQPLCSQLAGLSQGQKKLCHLYQDHMQYIGEGAKTGIKECQYQFRHRRWNCSTVDNTSVFGRVMQIGSRETAFTYAVSAAGVVNAMSRACREGELSTCGCSRAARPKDLPRDWLWGGCGDNIDYGYRFAKEFVDARERERIHAKGSYESARILMNLHNNEAGRRTVYNLADVACKCHGVSGSCSLKTCWLQLADFRKVGDALKEKYDSAAAMRLNSRGKLVQVNSRFNSPTTQDLVYIDPSPDYCVRNESTGSLGTQGRLCNKTSEGMDGCELMCCGRGYDQFKTVQTERCHCKFHWCCYVKCKKCTEIVDQFVCK
For B3, the “decrease in overall beating efficiency” value with R1 ES cells [1] (same stage as BayK 8644) turned out to be 20%.
